Experimental data from patent US20060069132A1, “Azolecarboxamide herbicides” (priority 2004, published 2006).

What was measured:
barnyardgrass [1] = assay: Test B flooded paddy test; assay type: in vivo, Echinochloa crus-galli; details: 1000 g ai/ha, visual rating, scale 0 to 100 (0 no effect, 100 complete control), 13 to 15 days
Summary of the method: (§1)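 Treated at 2-leaf (paddy) or 1–4-leaf, 2–18 cm (postemergence); greenhouse 13–15 d; visual score vs control, 0 none to 100 complete control; dash = not tested.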

morningglory = assay: Test B pre-/postemergence herbicide test; assay type: in vivo, Ipomoea coccinea; details: for Plant response rating, Morningglory: preemergence; for Morningglory plant response rating: postemergence, visual rating, scale 0 (no effect) to 100 (complete control)
Summary of the method: (§2)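 Herbicidal effect was judged by eye on a 0–100 scale after plants stood 13 to 15 days in the greenhouse following pre- or postemergence treatment with surfactant-containing formulations.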

Surinam grass = assay: Test B pre-/postemergence herbicide test; assay type: in vivo, Urochloa decumbens; details: for Plant response rating, Surinam Grass: preemergence; for Surinam Grass plant response rating: postemergence, visual rating, scale 0 (no effect) to 100 (complete control)
Summary of the method: (§3)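 Response was scored visually 13 to 15 days after treatment against untreated greenhouse controls, 0 meaning no effect and 100 complete control. Formulations (solvent mixture plus surfactant) went onto soil after planting, onto foliage of 1- to 4-leaf plants, and onto 2-leaf plants in a flooded paddy set including rice and barnyardgrass.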

large crabgrass = assay: Test B pre-/postemergence herbicide test; assay type: in vivo, Digitaria sanguinalis; details: for Plant response rating, Crabgrass, Large: preemergence; for Crabgrass, Large plant response rating: postemergence, visual rating, scale 0 (no effect) to 100 (complete control)
Summary of the method: as §3

blackgrass = assay: Test B postemergence herbicide test; assay type: in vivo, Alopecurus myosuroides; details: postemergence, visual rating, scale 0 (no effect) to 100 (complete control)
Summary of the method: as §1

velvetleaf = assay: Test B pre-/postemergence herbicide test; assay type: in vivo, Abutilon theophrasti; details: for Plant response rating, Velvetleaf: preemergence; for Velvetleaf plant response rating: postemergence, visual rating, scale 0 (no effect) to 100 (complete control)
Summary of the method: as §3

barnyardgrass [2] = assay: Test C flooded paddy test; assay type: in vivo, Echinochloa crus-galli
Summary of the method: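 Weeds and wheat were sprayed after emergence, at a height of 2 to 18 cm (1–4 leaves), and paddy barnyardgrass was flooded and treated at two leaves. Assessment took place 12–14 days later in the greenhouse on a 0-to-100 visual control scale. A dash means no result was obtained.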

[3] = system: small flower umbrella sedge; assay: Test B flooded paddy test; assay type: in vivo, Cyperus difformis; details: 1000 g ai/ha, visual rating, scale 0 to 100 (0 no effect, 100 complete control), 13 to 15 days
Summary of the method: as §1

cocklebur = assay: Test B pre-/postemergence herbicide test; assay type: in vivo, Xanthium strumarium; details: for Plant response rating, Cocklebur: preemergence; for Cocklebur plant response rating: postemergence, visual rating, scale 0 (no effect) to 100 (complete control)
Summary of the method: as §2

ducksalad [4] = assay: Test C flooded paddy test; assay type: in vivo, Heteranthera limosa
rice [5] = assay: Test B pre-/postemergence herbicide test; assay type: in vivo, Oryza sativa; details: preemergence
Summary of the method: as §3

lambsquarters = assay: Test B pre-/postemergence herbicide test; assay type: in vivo, Chenopodium album; details: for Plant response rating, Lambsquarters: preemergence; for Lambsquarters plant response rating: postemergence, visual rating, scale 0 (no effect) to 100 (complete control)
Summary of the method: as §3

wheat = assay: Test B postemergence herbicide test; assay type: in vivo, Triticum aestivum; set-up: key to Wheat plant response rating: 0 = no effect, 100 = complete control; details: postemergence, 500 g ai/ha; visual rating, scale 0 (no effect) to 100 (complete control)
Summary of the method: (§4)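 After treating 2-leaf paddy plants or 2–18 cm postemergence plants (1 to 4 leaves) with formulated chemical, researchers kept them in a greenhouse for 13–15 days. Effects were judged visually versus controls: 0 indicates none, 100 total control.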

corn = assay: Test B pre-/postemergence herbicide test; assay type: in vivo, Zea mays; details: for Plant response rating, Corn: preemergence; for Corn plant response rating: postemergence, visual rating, scale 0 (no effect) to 100 (complete control)
Summary of the method: as §3

giant foxtail = assay: Test B pre-/postemergence herbicide test; assay type: in vivo, Setaria faberi; details: for Plant response rating, Foxtail, Giant: preemergence; for Foxtail, Giant plant response rating: postemergence, visual rating, scale 0 (no effect) to 100 (complete control)
Summary of the method: as §3

pigweed = assay: Test B pre-/postemergence herbicide test; assay type: in vivo, Amaranthus retroflexus; details: for Plant response rating, Pigweed: preemergence; for Pigweed plant response rating: postemergence, visual rating, scale 0 (no effect) to 100 (complete control)
Summary of the method: as §3

barnyardgrass [6] = assay: Test B pre-/postemergence herbicide test; assay type: in vivo, Echinochloa crus-galli; details: for Plant response rating, Barnyardgrass: preemergence; for Barnyardgrass plant response rating: postemergence, visual rating, scale 0 (no effect) to 100 (complete control)
Summary of the method: as §2

ducksalad [7] = assay: Test B flooded paddy test; assay type: in vivo, Heteranthera limosa; details: 1000 g ai/ha, visual rating, scale 0 to 100 (0 no effect, 100 complete control), 13 to 15 days
Summary of the method: as §1

[8] = system: smallflower umbrella sedge; assay: Test C flooded paddy test; assay type: in vivo, Cyperus difformis
rice [9] = assay: Test B flooded paddy test; assay type: in vivo, Oryza sativa; details: 1000 g ai/ha, visual rating, scale 0 to 100 (0 no effect, 100 complete control), 13 to 15 days
Summary of the method: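 Postemergence plants were sprayed with formulated test chemicals at 2 to 18 cm height (1- to 4-leaf stage); paddy species were grown to the 2-leaf stage. After 13 to 15 days in a greenhouse, injury was rated visually against untreated controls on a 0–100 scale (0 = no effect, 100 = complete control).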

wild oat = assay: Test B postemergence herbicide test; assay type: in vivo, Avena fatua; details: postemergence, visual rating, scale 0 (no effect) to 100 (complete control)
Summary of the method: as §4

rice [10] = assay: Test C flooded paddy test; assay type: in vivo, Oryza sativa
Summary of the method: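 Plants were grown to the 1- to 4-leaf stage (2–18 cm) and then treated postemergence, or grown to the 2-leaf stage for the flooded paddy test. They were held in a greenhouse for 12 to 14 days and then scored by eye against controls, where 0 is no effect and 100 is complete control.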

[11] = 500 g ai/ha, visual rating 0-100, 0 no effect, 100 complete control
[12] = 125 g ai/ha, 0 to 100 scale, 0 is no effect, 100 is complete control
[13] = 62 g ai/ha, scale 0 to 100 (0 no effect, 100 complete control)
[14] = 250 g ai/ha, scale of 0 to 100, 0 is no effect, 100 is complete control
[15] = 500 g ai/ha, visual rating after 12 to 14 days, scale 0 to 100 (0 no effect, 100 complete control)
[16] = 125 g ai/ha, scale 0 to 100 (0 no effect, 100 complete control)

CCOC(=O)c1cc(N(C(C)=O)C(=O)c2cc(C(C)(C)C)nn2CC)ccc1C [Compound 141]
Barnyardgrass plant response rating (barnyardgrass [1]): 10
Plant response rating, Morningglory (morningglory; [11]): 30
Morningglory plant response rating (morningglory; 125 g ai/ha): 20
Morningglory plant response rating (morningglory; 500 g ai/ha): 30
Plant response rating, Morningglory (morningglory; [12]): 20
Plant response rating, Surinam Grass (Surinam grass; [11]): 10
Surinam Grass plant response rating (Surinam grass; 125 g ai/ha): 10
Surinam Grass plant response rating (Surinam grass; 500 g ai/ha): 20
Plant response rating, Surinam Grass (Surinam grass; [12]): 0
Plant response rating, Crabgrass, Large (large crabgrass; [11]): 20
Crabgrass, Large plant response rating (large crabgrass; 125 g ai/ha): 10
Crabgrass, Large plant response rating (large crabgrass; 500 g ai/ha): 30
Plant response rating, Crabgrass, Large (large crabgrass; [12]): 10
Blackgrass plant response rating (blackgrass; 125 g ai/ha): 20
Blackgrass plant response rating (blackgrass; 500 g ai/ha): 20
Plant response rating, Velvetleaf (velvetleaf; [11]): 20
Velvetleaf plant response rating (velvetleaf; 125 g ai/ha): 20
Velvetleaf plant response rating (velvetleaf; 500 g ai/ha): 80
Plant response rating, Velvetleaf (velvetleaf; [12]): 0
Barnyardgrass plant response rating (barnyardgrass [2]; [13]): 0
Barnyardgrass plant response rating (barnyardgrass [2]; 125 g ai/ha, scale of 0 to 100, 0 is no effect, 100 is complete control): 0
Barnyardgrass plant response rating (barnyardgrass [2]; [14]): 0
Plant response rating, Barnyardgrass (barnyardgrass [2]; [15]): 10
Sedge, Umbrella plant response rating [3]: 90
Plant response rating, Cocklebur (cocklebur; [11]): 10
Cocklebur plant response rating (cocklebur; 125 g ai/ha): 0
Cocklebur plant response rating (cocklebur; 500 g ai/ha): 20
Plant response rating, Cocklebur (cocklebur; [12]): 0
Ducksalad plant response rating (ducksalad [4]; [13]): 0
Ducksalad plant response rating (ducksalad [4]; [16]): 0
Ducksalad plant response rating (ducksalad [4]; [14]): 0
Plant response rating, Ducksalad (ducksalad [4]; [15]): 0
Plant response rating, Rice (rice [5]; [11]): 0
Plant response rating, Rice (rice [5]; [12]): 0
Plant response rating, Lambsquarters (lambsquarters; [11]): 0
Lambsquarters plant response rating (lambsquarters; 125 g ai/ha): 60
Lambsquarters plant response rating (lambsquarters; 500 g ai/ha): 90
Plant response rating, Lambsquarters (lambsquarters; [12]): 0
Wheat plant response rating (wheat): 20
Plant response rating, Corn (corn; [11]): 0
Corn plant response rating (corn; 125 g ai/ha): 0
Corn plant response rating (corn; 500 g ai/ha): 10
Plant response rating, Corn (corn; [12]): 0
Plant response rating, Foxtail, Giant (giant foxtail; [11]): 20
Foxtail, Giant plant response rating (giant foxtail; 125 g ai/ha): 20
Foxtail, Giant plant response rating (giant foxtail; 500 g ai/ha): 20
Plant response rating, Foxtail, Giant (giant foxtail; [12]): 10
Plant response rating, Pigweed (pigweed; [11]): 30
Pigweed plant response rating (pigweed; 125 g ai/ha): 30
Pigweed plant response rating (pigweed; 500 g ai/ha): 80
Plant response rating, Pigweed (pigweed; [12]): 0
Plant response rating, Barnyardgrass (barnyardgrass [6]; [11]): 0
Barnyardgrass plant response rating (barnyardgrass [6]; 125 g ai/ha): 0
Barnyardgrass plant response rating (barnyardgrass [6]; 500 g ai/ha): 10
Plant response rating, Barnyardgrass (barnyardgrass [6]; [12]): 0
Ducksalad plant response rating (ducksalad [7]): 80
Sedge, Umbrella plant response rating [8, 13]: 0
Sedge, Umbrella plant response rating [8, 16]: 0
Sedge, Umbrella plant response rating [8, 14]: 30
Plant response rating, Sedge, Umbrella [8, 15]: 45
Rice plant response rating (rice [9]): 0
Oat, Wild plant response rating (wild oat; 125 g ai/ha): 10
Oat, Wild plant response rating (wild oat; 500 g ai/ha): 20
Rice plant response rating (rice [10]; [13]): 0
Rice plant response rating (rice [10]; [16]): 0
Rice plant response rating (rice [10]; [14]): 0
Plant response rating, Rice (rice [10]; [15]): 0
